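48-hour exposure; five concentrations; linearly interpolated endpoints. TGI: total growth inhibition.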
Columns and labels:
Assay in all cases: growth of human tumour cells (NCI), 48 h
M14 melanoma = test system: M14 melanoma
HCT-15 colon = test system: HCT-15 colon
UO-31 renal = test system: UO-31 renal
SN12C renal = test system: SN12C renal
OVCAR-4 ovarian = test system: OVCAR-4 ovarian
HCC-2998 colon = test system: HCC-2998 colon

`COCN1C(=O)[C@@H]2CCCN2C(=O)c2cc(OC)c(Cc3ccccc3)cc21` was tested, and the TGI (M14 melanoma) was over 100 µM, the TGI (HCT-15 colon) was over 100 µM and the TGI (UO-31 renal) was over 100 µM. The TGI (SN12C renal) was over 100 µM and the TGI (OVCAR-4 ovarian) was over 100 µM.
`COc1ccc(/C=C/C(=O)c2cc(OC)cc(OC)c2)cc1` gave a TGI (M14 melanoma) of 6.83 µM, a TGI (HCC-2998 colon) of 16.3 µM and a TGI (HCT-15 colon) of 7.9 µM. It also gave a TGI (UO-31 renal) of 12.4 µM, a TGI (SN12C renal) of 13.5 µM and a TGI (OVCAR-4 ovarian) of 18 µM.
Compound `O=C(CC(NC(=O)OCc1ccccc1)C(=O)NC1Cc2ccccc2C1=O)OCc1ccccc1` (stereo not given) has a TGI (M14 melanoma) of over 100 µM, a TGI (HCC-2998 colon) of over 100 µM and a TGI (HCT-15 colon) of over 100 µM. It also gave a TGI (UO-31 renal) of over 100 µM and a TGI (SN12C renal) of over 100 µM.
Compound `Clc1ccc(/C=C/c2nc(-c3ccccc3)cn3c2nc2ccccc23)cc1Cl` has a TGI (M14 melanoma) of over 100 µM, a TGI (HCC-2998 colon) of over 100 µM and a TGI (HCT-15 colon) of over 100 µM. It also gave a TGI (UO-31 renal) of over 100 µM, a TGI (SN12C renal) of over 100 µM and a TGI (OVCAR-4 ovarian) of over 100 µM.
`C=CC(=O)NCCC(=O)OCn1cc(F)c(=O)[nH]c1=O` was tested, and the TGI (M14 melanoma) was over 100 µM, the TGI (HCC-2998 colon) was over 100 µM and the TGI (HCT-15 colon) was over 100 µM. For the same compound, the TGI (UO-31 renal) was over 100 µM, the TGI (SN12C renal) was 15.3 µM and the TGI (OVCAR-4 ovarian) was 40.3 µM.
With `O=c1[nH]c(=S)[nH]cc1CN1CCOCC1` the TGI (M14 melanoma) was over 100 µM, the TGI (HCC-2998 colon) was over 100 µM and the TGI (HCT-15 colon) was over 100 µM. For the same compound, the TGI (UO-31 renal) was over 100 µM, the TGI (SN12C renal) was over 100 µM and the TGI (OVCAR-4 ovarian) was over 100 µM.
`Cc1cn([C@@H]2O[C@H](CO[Si](C)(C)C(C)(C)C)[C@]3(O[C@H]3C(=O)NO)[C@H]2O[Si](C)(C)C(C)(C)C)c(=O)[nH]c1=O` gave a TGI (M14 melanoma) of 3.56 µM, a TGI (HCC-2998 colon) of 2.97 µM and a TGI (HCT-15 colon) of 3.62 µM. The TGI (UO-31 renal) was 3.28 µM, the TGI (SN12C renal) was 3.08 µM and the TGI (OVCAR-4 ovarian) was 3.77 µM.
With `OCC(O)COCn1cc(Cn2ncc3c(SCc4ccccc4)ncnc32)nn1` (stereo not given) the TGI (M14 melanoma) was over 100 µM, the TGI (HCC-2998 colon) was over 100 µM and the TGI (HCT-15 colon) was over 100 µM. It also gave a TGI (UO-31 renal) of over 100 µM, a TGI (SN12C renal) of over 100 µM and a TGI (OVCAR-4 ovarian) of over 100 µM.
For `CC(C)OC(=O)NCCn1cc(-c2ccccc2)nn1`, the TGI (M14 melanoma) was over 100 µM, the TGI (HCC-2998 colon) was over 100 µM and the TGI (HCT-15 colon) was over 100 µM. The TGI (SN12C renal) was over 100 µM and the TGI (OVCAR-4 ovarian) was over 100 µM.
Compound `COC(=NC(C)C)NC(C)C` has a TGI (M14 melanoma) of over 100 µM, a TGI (HCC-2998 colon) of over 100 µM and a TGI (HCT-15 colon) of over 100 µM. For the same compound, the TGI (UO-31 renal) was over 100 µM and the TGI (SN12C renal) was over 100 µM.
For `CC(NCc1c(O)ccc2c(-c3ccccc3)cc(=O)oc12)C(=O)O` (stereo not given), the TGI (M14 melanoma) was over 100 µM, the TGI (HCC-2998 colon) was over 100 µM and the TGI (HCT-15 colon) was over 100 µM. The TGI (UO-31 renal) was over 100 µM, the TGI (SN12C renal) was over 100 µM and the TGI (OVCAR-4 ovarian) was over 100 µM.
Work on `CCOC(=O)c1nc2ccccc2nc1Oc1cc(OC)cc(OC)c1` yielded a TGI (M14 melanoma) of over 100 µM, a TGI (HCT-15 colon) of over 100 µM and a TGI (UO-31 renal) of over 100 µM. It also gave a TGI (SN12C renal) of over 100 µM and a TGI (OVCAR-4 ovarian) of over 100 µM.
For `CCCCCCCCCCCCCCCCOCC(COP(=O)(O)OCC1OC(n2cc(CC)c(=O)[nH]c2=O)CC1O)OC(=O)CCCCCCCCCCCCCCC` (stereo not given), the TGI (M14 melanoma) was over 100 µM, the TGI (HCC-2998 colon) was over 100 µM and the TGI (HCT-15 colon) was over 100 µM. It also gave a TGI (UO-31 renal) of over 100 µM, a TGI (SN12C renal) of over 100 µM and a TGI (OVCAR-4 ovarian) of over 100 µM.
For `COC(=O)NC(=O)NC(Cc1ccccc1)NC(=O)OCc1ccccc1` (stereo not given), the TGI (M14 melanoma) was over 100 µM, the TGI (HCC-2998 colon) was over 100 µM and the TGI (HCT-15 colon) was over 100 µM. For the same compound, the TGI (UO-31 renal) was over 100 µM, the TGI (SN12C renal) was over 100 µM and the TGI (OVCAR-4 ovarian) was over 100 µM.
With `COc1ccc2c(c1)/C(=C/c1c(O)[nH]c(=S)[nH]c1=O)C=N2` the TGI (M14 melanoma) was over 100 µM, the TGI (HCC-2998 colon) was over 100 µM and the TGI (HCT-15 colon) was over 100 µM. It also gave a TGI (UO-31 renal) of over 100 µM, a TGI (SN12C renal) of over 100 µM and a TGI (OVCAR-4 ovarian) of over 100 µM.
For `COc1ccc2c(-c3csc(-c4c[nH]c5ccc(Br)cc45)n3)c[nH]c2c1`, the TGI (M14 melanoma) was over 100 µM, the TGI (HCT-15 colon) was over 100 µM and the TGI (UO-31 renal) was over 100 µM. It also gave a TGI (SN12C renal) of over 100 µM and a TGI (OVCAR-4 ovarian) of over 100 µM.
`O=C1CSC(c2c[nH]c3ccccc23)N1c1cccc(Cl)c1` (stereo not given) gave a TGI (M14 melanoma) of over 100 µM, a TGI (HCC-2998 colon) of over 100 µM and a TGI (HCT-15 colon) of over 100 µM. It also gave a TGI (UO-31 renal) of over 100 µM, a TGI (SN12C renal) of over 100 µM and a TGI (OVCAR-4 ovarian) of over 100 µM.
`C=CCOC(=O)Cn1cnc2c(N)ncnc21` was tested, and the TGI (M14 melanoma) was over 100 µM, the TGI (HCC-2998 colon) was over 100 µM and the TGI (HCT-15 colon) was over 100 µM. The TGI (UO-31 renal) was over 100 µM, the TGI (SN12C renal) was over 100 µM and the TGI (OVCAR-4 ovarian) was over 100 µM.
With `Cc1ccc(S(=O)(=O)NNC(=O)Nc2cccc(C(F)(F)F)c2)cc1` the TGI (M14 melanoma) was over 100 µM, the TGI (HCC-2998 colon) was over 100 µM and the TGI (HCT-15 colon) was over 100 µM. It also gave a TGI (UO-31 renal) of over 100 µM, a TGI (SN12C renal) of over 100 µM and a TGI (OVCAR-4 ovarian) of over 100 µM.
`CN1CCN(Cn2nc(COc3ccccc3Cl)n(/N=C/c3ccc(-c4ccc(Cl)cc4Cl)o3)c2=S)CC1` showed a TGI (M14 melanoma) of 81.7 µM, a TGI (HCC-2998 colon) of 33.8 µM and a TGI (HCT-15 colon) of 74.3 µM. It also gave a TGI (UO-31 renal) of over 100 µM and a TGI (OVCAR-4 ovarian) of 45.2 µM.
For `N#CC(C#N)=c1c(=O)c2c3ccccc3cc3cccc1c32`, the TGI (M14 melanoma) was over 100 µM, the TGI (HCC-2998 colon) was over 100 µM and the TGI (HCT-15 colon) was over 100 µM. It also gave a TGI (SN12C renal) of over 100 µM and a TGI (OVCAR-4 ovarian) of over 100 µM.
`CCCN(CCC)C(=S)Sc1nc(C)nc(N2CCN(c3nc(C)nc(SC(=S)N(CCC)CCC)c3[N+](=O)[O-])CC2)c1[N+](=O)[O-]` gave a TGI (M14 melanoma) of 60.9 µM, a TGI (HCC-2998 colon) of 43.6 µM and a TGI (HCT-15 colon) of 32.1 µM. The TGI (UO-31 renal) was 37.4 µM, the TGI (SN12C renal) was over 39.8 µM and the TGI (OVCAR-4 ovarian) was 76.5 µM.
Compound `O=C1C2C3C4C1C1C2[C@H](OCc2ccccc2)C3C1[C@H]4OCc1ccccc1` (stereo not given in full) has a TGI (M14 melanoma) of over 100 µM, a TGI (HCC-2998 colon) of over 100 µM and a TGI (HCT-15 colon) of 57.9 µM. It also gave a TGI (UO-31 renal) of over 100 µM, a TGI (SN12C renal) of over 100 µM and a TGI (OVCAR-4 ovarian) of over 100 µM.
`CC(=O)OCC1OC(n2c3c(c(-c4ccc(C)cc4)c(C#N)c2=S)C(=O)CC(C)(C)C3)C(OC(C)=O)C(OC(C)=O)C1OC(C)=O` (stereo not given) was tested, and the TGI (M14 melanoma) was over 100 µM, the TGI (UO-31 renal) was over 100 µM and the TGI (SN12C renal) was 42.7 µM.
`NS(=O)(=O)c1ccc(NC(=S)NC(=O)Nc2ccc(Cl)c(Cl)c2)cc1` showed a TGI (M14 melanoma) of 20.9 µM, a TGI (HCC-2998 colon) of 30.9 µM and a TGI (HCT-15 colon) of 29.8 µM. It also gave a TGI (UO-31 renal) of 9.66 µM, a TGI (SN12C renal) of 31 µM and a TGI (OVCAR-4 ovarian) of 44.1 µM.
`CC(=O)N1C=Cc2c(c(C)c3c([nH]c4ccccc43)c2C)C1` showed a TGI (M14 melanoma) of 20.9 µM, a TGI (HCT-15 colon) of 4.99 µM and a TGI (SN12C renal) of 20.3 µM. For the same compound, the TGI (OVCAR-4 ovarian) was 5.17 µM.
`Cc1nnc2n1N=C(c1cc(F)c(Cl)cc1Cl)/C(=C/c1ccc(-c3ccc([N+](=O)[O-])cc3)o1)S2` gave a TGI (M14 melanoma) of over 100 µM, a TGI (HCC-2998 colon) of over 100 µM and a TGI (HCT-15 colon) of over 100 µM. It also gave a TGI (UO-31 renal) of over 100 µM, a TGI (SN12C renal) of over 100 µM and a TGI (OVCAR-4 ovarian) of over 100 µM.
Work on `Cc1nc2ccc(F)cc2c2c1CCS2` yielded a TGI (HCC-2998 colon) of over 100 µM, a TGI (HCT-15 colon) of over 100 µM and a TGI (UO-31 renal) of over 100 µM. For the same compound, the TGI (OVCAR-4 ovarian) was over 100 µM.
`CSC(=S)CC(O)[C@@H]1CC2c3ccccc3C1c1ccccc12` (stereo not given in full) showed a TGI (M14 melanoma) of 27 µM, a TGI (HCC-2998 colon) of 28.2 µM and a TGI (HCT-15 colon) of 25.6 µM. It also gave a TGI (UO-31 renal) of 25.6 µM, a TGI (SN12C renal) of 45.2 µM and a TGI (OVCAR-4 ovarian) of 27.5 µM.
In the case of `COc1ccc(N2C(=O)c3cc([N+](=O)[O-])cnc3S2(=O)=O)cc1`, the TGI (HCC-2998 colon) is reported as over 100 µM, the TGI (HCT-15 colon) is reported as over 100 µM and the TGI (UO-31 renal) is reported as over 100 µM. It also gave a TGI (SN12C renal) of over 100 µM and a TGI (OVCAR-4 ovarian) of over 100 µM.
In the case of `C#CCOC(=O)C(N)CC(N)=O` (stereo not given), the TGI (M14 melanoma) is reported as over 100 µM, the TGI (HCC-2998 colon) is reported as over 100 µM and the TGI (HCT-15 colon) is reported as over 100 µM. The TGI (UO-31 renal) was over 100 µM, the TGI (SN12C renal) was over 100 µM and the TGI (OVCAR-4 ovarian) was over 100 µM.

From PubChem BioAssay (NCI)
